Test system: statin-intolerant patients with or at high risk of CVD
Assay: CLEAR OUTCOMES trial (Example 1): effect on LDL-cholesterol, hsCRP, other lipids and glycaemic biomarkers
Assay type: in vivo, human
Text: The CLEAR OUTCOMES trial was a randomized, placebo-controlled, double-blind trial that enrolled patients at 1250 sites in 32 countries. An independent Data Monitoring Committee reviewed safety and efficacy data during the trial.
Patients 18 to 85 years of age were eligible for enrollment if they met either of two criteria for increased cardiovascular risk, a prior cardiovascular event (secondary prevention) or clinical features that placed them at high risk for a cardiovascular event (primary prevention). (Nicholls S. Lincoff A M, Bays H E, et al. Rationale and design of the CLEAR-outcomes trial: Evaluating the effect of bempedoic acid on cardiovascular events in patients with statin intolerance. Am Heart J. 2021 May; 235:104-112) All patients provided written informed consent. Patients had to report statin intolerance due to an adverse effect that started or increased during statin therapy and resolved or improved after statin therapy was discontinued. Patients could be enrolled if they tolerated a very low average daily statin dose (e.g., an average daily dose of rosuvastatin <5 mg, atorvastatin <10 mg, simvastatin <10 mg, lovastatin <20 mg, pravastatin <40 mg, fluvastatin <40 mg, or pitavastatin <2 mg). Other lipid-lowering therapies were permitted, including ezetimibe, niacin, bile acid resins, fibrates, and/or proprotein convertase subtilisin kexin type 9 (PCSK9) inhibitors. Full inclusion and exclusion criteria are provided in Nicholls et al. (Am Heart J. 2021).
Eligible patients entered a 4-week run-in period during which patients were treated with single-blind placebo. If patients were intolerant to placebo treatment or if adherence was <80% by tablet count, they were not eligible for randomization. Patients who successfully completed the run-in period were randomly assigned in a 1:1 ratio to receive bempedoic acid at an oral dose of 180 mg or matching placebo, administered daily. Beginning 6 months after enrollment, the central laboratory notified the investigator if the patient's LDL-cholesterol level was ≥25% higher than baseline. These patients were counseled on healthy dietary guidelines and reminded to take all lipid-regulating medications. If repeat testing confirmed that LDL-cholesterol value met the threshold criteria, the provider could adjust the lipid-lowering treatment regimen per standard of care and local guidelines.
This was an event-driven trial designed to provide at least 90% power to detect a 15% relative risk reduction for the primary composite end point at an overall two-sided significance level of 0.05. The trial required a minimum of 1620 primary composite events with ≥24 months of follow-up for all patients and at least 810 first key secondary end points. The average treatment duration was estimated to be 42 months and a lost-to-follow-up rate of 1% per year. Assuming a 3.59% annual event rate in the placebo group, enrollment of 12,600 patients was required, subsequently amended to 14,000. There were no interim efficacy analyses. A hierarchical approach was prespecified to evaluate sequentially each of the six key secondary efficacy end points with statistical significance at each step required to test the next hypothesis, thereby preserving the study-wise Type I error rate at 5%. All analyses were based on the intent-to-treat principle. The primary efficacy end point was analyzed using Cox proportional hazards model with treatment as a factor to generate the hazard ratio (HR) and 95% confidence interval (CI). The p-value was obtained from a log-rank test.

[1] = baseline mean 139.0 mg/dL, full population

CC(C)(CCCCCC(O)CCCCCC(C)(C)C(=O)O)C(=O)O [Bempedoic Acid, Bempedoic acid]
placebo-subtracted reduction in LDL-cholesterol after 6 months of treatment [1]: 29.2 mg/dL
placebo-subtracted reduction in LDL-cholesterol after 6 months of treatment, percent [1]: 21.1%
Change from baseline to month 12 in HbA1C in patients with inadequately controlled type 2 diabetes mellitus, Difference (bempedoic acid vs placebo): −0.03%
Change from baseline to Month 6 in HbA1c (%), All patients (observed mean ± SD): −0.003 ± 0.6^ %
Change from baseline to Month 6 in HbA1c (%), Inadequately Controlled Diabetes at Baseline (observed mean ± SD): −0.20 ± 1.0%
Change from baseline to Month 12 in HbA1c (%), All patients (observed mean ± SD): 0.04 ± 0.74%
Change from baseline to Month 12 in HbA1c (%), Inadequately Controlled Diabetes at Baseline (observed mean ± SD): −0.06 ± 1.3%
decrease in LDL-C as compared to baseline (prior to initial administration as baseline): about 21%
time-averaged reduction in LDL-cholesterol, percent (vs placebo, over the trial, full population): 15.9%

— US20240226049A1, “METHODS OF TREATMENT USING BEMPEDOIC ACID” (Esperion Therapeutics, Inc., priority 2023, published 2024)
